Test results as given in patent US6339149B1, “Isolated nucleic acid molecules which encode tumor rejection antigens found in dage” (Ludwig Institute for Cancer Research, priority 1994, dated 2002).

System: C1R-A24 cells
Assay: 51Cr release assay: peptide sensitization of C1R-A24 cells to lysis by anti LB33-E CTLs
Type: cell-based, human
Conditions: 51Cr labeled C1R-A24 cells incubated 30 minutes with peptide, E/T ratio 10:1, chromium release after 4 hours
Description: The lysis assay employed was a chromium release assay following Herin et al., Int. J. Cancer 39:390-396 (1987), the disclosure of which is incorporated by reference. The assay, however, is described herein. The target melanoma cells were grown in vitro. Prior to labelling, these cells were incubated for 48 hours, in the presence of 50 U/ml of IFN-γ to increase the expression of HLA Class I molecules. The cells were then resuspended at 10^7 cells/ml in DMEM, supplemented with 10 mM HEPES and 30% FCS (i.e. fetal calf serum), and incubated for 45 minutes at 37° C. with 200 μCi/ml of Na(^51Cr)O4. Labelled cells were washed three times with DMEM, supplemented with 10 mM Hepes. These were then resuspended in DMEM supplemented with 10 mM Hepes and 10% FCS, after which 100 ul aliquots containing 10^3 cells, were distributed into 96 well microplates. PBL containing samples were added in 100 ul of the same medium, and assays were carried out in duplicate. Plates were centrifuged for 4 minutes at 100 g, and incubated for four hours at 37° C. in a 5.5% CO2 atmosphere.
Plates were centrifuged again, and 100 ul aliquots of supernatant were collected and counted. Percentage of ^51Cr release was calculated as follows: [formula]
where ER is observed, experimental ^51Cr release, SR is spontaneous release measured by incubating 10^3 labeled cells in 200 ul of medium alone, and MR is maximum release, obtained by adding 100 ul 0.3% Triton X-100® to target cells.
Four sequences in this region which (i) were 9 or 10 amino acids long, (ii) had Tyr or Phe at position 2, and (iii) had one of Phe, Leu, Ile, or Trp at C-terminus were possible. This is the motif for HLA-A24 binding described by Kubo, et al, J. Immunol 152:3913 (1994); Meier, et al, Immunogenetics 40:306-308 (1994). These were synthesized, and incubated with cells of MHC class I negative B-cell lympoblastoid line C1R, which had been transfected with the HLA-A24 cDNA clone described supra. One peptide:
Comparative experiments were carried out, wherein peptides containing one additional N- or C-terminal amino acid, and where the C-terminal Leu was deleted, were used. […] Peptides used extended SEQ ID NO:5 at the N-terminues with Ala (SEQ ID NO:6), and by deleting the C-terminal Leu (SEQ ID NO:7). […] In these experiments, ^51Cr labeled C1R-A24 cells were incubated for 30 minutes in the presence of indicated peptide concentrations CTLs were added at E/T ratios of 10:1, and chromium release was measured after 4 hours.

| Substance | sensitization of C1R-A24 cells to lysis, compared with SEQ ID NO:5 | EC50 (read-out: half maximal effect in sensitizing transfected C1R-A24 cells to lysis by anti LB33-E CTLs) |
| --- | --- | --- |
| SEQ ID NO:7: Peptide of SEQ ID NO:5 with the C-terminal Leu deleted (LYVDSLFF) | much less sensitive in sensitizing the cells |  |
| SEQ ID NO:8: Peptide of SEQ ID NO:5 with Arg added to the C terminus (LYVDSLFFLR) | much less sensitive in sensitizing the cells |  |
| SEQ ID NO:6: Peptide that extends SEQ ID NO:5 at the N-terminus with Ala (ALYVDSLFFL) | sensitized the cells to lysis, although to a lesser degree than SEQ ID NO:5 |  |
| LYVDSLFFL [SEQ ID NO. 5, Leu Tyr Val Asp Ser Leu Phe Phe Leu] |  | 500 nM |
